The assay can be described thus: Displacement of [3H]diazepam from GABAA/BzR in rat brain membrane. The format is cell membranes. On the technique in general: Displacement assays read how much labelled ligand stays bound in the presence of the test substance.
`Brc1ccc2[nH]c3c4c5ccccc5nc-4c[nH]c3c2c1`: the pIC50 (in general, the IC50 on a negative log10 scale, so that one unit is a factor of ten) stood at 6.12.
`Brc1cccc2c1[nH]c1c3c4ccccc4nc-3c[nH]c12` had a pIC50 of 7.55.
Turning to `Cn1c2ccccc2c2c3[nH]c4ccccc4c3ncc21`, the pIC50 is given as 5.94.
Molecule `Oc1cc2c3ccccc3nc-2c[nH]1` returned a pIC50 of 5.4.
The molecule `c1ccc2c(c1)[nH]c1c2ncc2[nH]c3ccccc3c21` showed a pIC50 of 8.4.
The molecule `Clc1cccc2[nH]c3c4c5ccccc5nc-4c[nH]c3c12` registered a pIC50 of 6.15.
With `Cc1ccc2[nH]c3c4c5ccccc5nc-4c[nH]c3c2c1`, the pIC50 is 6.65.
In turn, `Fc1ccc2[nH]c3c4c5ccccc5nc-4c[nH]c3c2c1` yielded a pIC50 of 8.22.
Next, `Fc1cccc2c1[nH]c1c3c4ccccc4nc-3c[nH]c12`: 7.92.
On to `Clc1ccc2[nH]c3c4c5ccccc5nc-4c[nH]c3c2c1`, for which the pIC50 stood at 5.67.
In turn, `Oc1cccc2[nH]c3c4c5ccccc5nc-4c[nH]c3c12` returned a pIC50 of 6.24.
Turning to `Cc1cc(-n2[nH]c3c(cnc4cc(Cl)ccc43)c2=O)cs1`, the pIC50 worked out at 8.96.
Turning to `Cc1ccc2c(c1)ncc1c(=O)n(-c3csc(C)c3)[nH]c12`, the pIC50 is given as 8.87. The pIC50 values of the last two molecules are within 0.2 log units of each other.
Next, `O=c1c2cnc3ccccc3c2[nH]n1-c1csc(Cl)c1`: 8.99; `O=c1c2cnc3ccccc3c2[nH]n1-c1ccsc1`: 8.99.
For the molecule `Cc1cc(-n2[nH]c3c(cnc4cc(F)ccc43)c2=O)cs1`, the pIC50 is on record as 9.05.
The molecule `Cc1cc(-n2[nH]c3c(cnc4ccccc43)c2=O)cs1` returned a pIC50 of 9.35.
Molecule `COc1ccc2[nH]c3c4c5ccccc5nc-4c[nH]c3c2c1` yielded a pIC50 of 6.05.
The figure for `Brc1ccc2c(c1)[nH]c1c3c4ccccc4nc-3c[nH]c12` is 7.72; for `Cc1cc(-n2nc3c4cc(Cl)ccc4[nH]cc-3c2=O)cs1` it is 9.06.
`Cc1ccc2[nH]cc3c(=O)n(-c4csc(C)c4)nc-3c2c1`: the pIC50 was determined as 9.27.
Next, `Cc1cc(-n2nc3c4cc(F)ccc4[nH]cc-3c2=O)cs1`: 9.29.
Consider `Cc1cc(-n2nc3c4ccccc4n(C)cc-3c2=O)cs1`, for which the pIC50 is 6.52.
In the case of `COc1cc2c(cn1)[nH]c1ccccc12`, the negative-log IC50 (pIC50) amounted to 6.91.
`Clc1cc2c(cn1)[nH]c1ccccc12`: the pIC50 is 7.35.
Turning to `Clc1ccc2c(c1)[nH]c1c2ncc2[nH]c3ccccc3c21`, the pIC50 is 8.
`COc1ccc2c(c1)[nH]c1c2ncc2[nH]c3ccccc3c21` had a pIC50 of 8.1.
Regarding `Brc1ccc2[nH]c3cnc4c5ccccc5[nH]c4c3c2c1`, the pIC50 turned out to be 8.22.
The figure for `c1ccc(Oc2ccc3[nH]c4c(ncc5[nH]c6ccccc6c54)c3c2)cc1` is 5.8.
Turning to `Cn1c2ccccc2c2c1ccc1c3ccccc3n(C)c12`, the pIC50 stood at 5.72.
In turn, `O=[N+]([O-])c1cc2c3ccccc3nc-2c[nH]1` registered a pIC50 of 6.9.
`CCOC(=O)c1cc2c(cn1)sc1ccccc12` returned a pIC50 of 5.77.
`Cc1ccc2c(c1)[nH]c1c3c4ccccc4nc-3c[nH]c12` yielded a pIC50 of 8.1.
The figure for `Cc1cccc2c1[nH]c1c3c4ccccc4nc-3c[nH]c12` is 7.08.
`CCOC(=O)c1cc2c(cn1)Cc1ccccc1-2` came in with a pIC50 of 6.17.
In turn, `COc1cccc2[nH]c3c4c5ccccc5nc-4c[nH]c3c12` yielded a pIC50 of 6.6.
Next, `Cn1c2ccccc2c2[nH]cc3nc4ccccc4c-3c21`: 6.8; `CCOC(=O)c1cc2c(cn1)oc1ccccc12`: 5.04.
For the molecule `CCc1nc2c3ccccc3[nH]c2c2c1[nH]c1ccccc12`, the pIC50 is reported as 6.6.
Next, `Clc1ccc2[nH]c3c[nH]c4c5cccc(Cl)c5nc-4c3c2c1`: 6.51; `Oc1ccc2c(c1)[nH]c1c3c4ccccc4nc-3c[nH]c12`: 8.22; `Nc1ccc2[nH]c3c[nH]c4c5ccccc5nc-4c3c2c1`: 7.36.
The molecule `O=[N+]([O-])c1ccc2[nH]c3c[nH]c4c5cc(Cl)ccc5nc-4c3c2c1` yielded a pIC50 of 5.92.
Molecule `Clc1cccc2c1[nH]c1c3c4ccccc4nc-3c[nH]c12` had a negative-log IC50 (pIC50) of 7.1.
Molecule `O=[N+]([O-])c1ccc2[nH]c3c[nH]c4c5ccccc5nc-4c3c2c1` came in with a pIC50 of 8.4.
The figure for `O=[N+]([O-])c1ccc2[nH]c3c[nH]c4c5ccc(Cl)cc5nc-4c3c2c1` is 6.9; for `Fc1ccc2c(c1)[nH]c1c3c4ccccc4nc-3c[nH]c12` it is 8.15.
Molecule `Oc1ccc2[nH]c3c4c5ccccc5nc-4c[nH]c3c2c1` yielded a pIC50 of 6.94.
As to `Nc1ccc2[nH]c3c[nH]c4c5ccc(Cl)cc5nc-4c3c2c1`, the pIC50 amounted to 7.01. The pIC50 values of the last two molecules are within 0.2 log units of each other.
`COC(=O)c1cc2c(cn1)[nH]c1ccccc12` [BETA-CCM]: the pIC50 worked out at 8.3.
`O=C1C2C=Nc3ccccc3C2=NN1c1ccccc1` (centres undefined) [CGS-8216] registered a pIC50 of 9.51.
Next, `O=C1C2C=Nc3ccccc3C2=NN1c1ccc(Cl)cc1` (centres undefined) [CGS-9896]: 8.94; `Cc1nccc2c1[nH]c1ccccc12` [HARMAN]: 4.91.
The figure for `c1ccc2c(c1)[nH]c1cnccc12` [NORHARMANE] is 5.79.

The record behind these values is ChEMBL document CHEMBL1141665, “Quantitative structure-activity relationship studies of a series of non-benzodiazepine structural ligands binding to benzodiazepine receptor” (Eur J Med Chem, 2008).
